The target in the assay is MDM2 (Homo sapiens, UniProt Q00987). Put plainly: MDM2 binding screen: displacement of fluorescent p53 peptide probe FP53 (fluorescence polarization). As to conditions: for fraction fluorescent probe displaced: 10 µM macrocycle concentration, crude acylated macrocycle (scaffold Mpa-AA1-AA2-AA3 x carboxylic acid), p53-based fluorescent peptide, human MDM2; for fraction fluorescent probe displaced, Screen: initial screen; for fraction fluorescent probe displaced, Screen / fraction fluorescent probe displaced, Replicate: crude macrocycle reactions. The essentials: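 Macrocycle reaction products at a final 10 µM were tested for displacement of a p53-based fluorescent peptide from human MDM2. Fluorescence anisotropy (ex 485/em 535 nm) was read once per macrocycle at 25 °C.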
A general note: Polarisation of emitted light reports the rotation of a fluorescent probe.

Numbered stars: 1 amine (or outer) side, 2 acyl side, 3 side chain; on linkers, the order of the positions; unused ones are H or OH. Bridge positions count the residues as written; N and C are the ends. Square brackets hold non-standard residues; d marks the D form. Peptide text beside a SMILES is read from it. * marks the point of attachment. Tetrahydropyran4carbonyl = O=C(C1CCOCC1)*; Nicotinoyl(6-OMe) = COc1ccc(C(=O)*)cn1; 2Thenoyl(5-Cl) = O=C(c1ccc(Cl)s1)*; Benzoyl(4-Cl) = O=C(c1ccc(Cl)cc1)*; X10 = O=C(c1cc(-c2ccco2)[nH]n1)*; Cysteamide = C(CS[*:3])N[*:1]; X1 = O=C(/C=C/c1ccccc1)*; Api = NC1(C(=O)O)CCNCC1; Dap = NC[C@H](N)C(=O)O; Mpa = O=C(O)CCS

MDM2, sequence (Q00987 whole entry, the tested form may be a part): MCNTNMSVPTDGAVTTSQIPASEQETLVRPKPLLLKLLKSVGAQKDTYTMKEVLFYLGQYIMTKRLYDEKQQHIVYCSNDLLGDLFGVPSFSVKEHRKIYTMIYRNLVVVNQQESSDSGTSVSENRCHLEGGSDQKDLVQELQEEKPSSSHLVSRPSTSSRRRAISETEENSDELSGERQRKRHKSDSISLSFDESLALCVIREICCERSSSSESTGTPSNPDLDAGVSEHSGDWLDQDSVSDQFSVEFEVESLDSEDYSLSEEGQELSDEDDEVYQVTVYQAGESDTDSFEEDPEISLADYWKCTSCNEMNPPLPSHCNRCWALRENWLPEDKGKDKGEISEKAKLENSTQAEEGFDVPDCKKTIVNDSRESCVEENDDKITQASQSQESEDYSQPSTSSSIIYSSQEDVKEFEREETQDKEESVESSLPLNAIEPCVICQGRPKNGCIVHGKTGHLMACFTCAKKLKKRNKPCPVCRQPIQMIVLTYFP

Turning to `COc1ccc(C(=O)NC[C@@H]2NC(=O)[C@@H]3CCCN3C(=O)CCSSCCNC(=O)[C@H](Cc3ccccc3)NC2=O)cn1` [X-B1-D3-F + A10] ([Mpa]P[Dap](Nicotinoyl(6-OMe))F-Cysteamide; disulfide 1-C), the “fraction fluorescent probe displaced” value is given as 0.01535.

In the case of `O=C1CCSSCCNC(=O)C(Cc2ccccc2)NC(=O)C(CNC(=O)c2ccc(Cl)s2)NC(=O)c2cccc(c2)CN1` (stereo not shown) [X B5 D3 F Acid 14], where the note is “Acid 14”, the “fraction fluorescent probe displaced, Screen” value is -0.00483 and the “fraction fluorescent probe displaced, Replicate” value is reported as 0.12.

For the compound `O=C1CCSSCCNC(=O)C2CN(C(=O)C=Cc3ccccc3)CCN2C(=O)C(Cc2ccccc2)NC(=O)c2cccc(c2)CN1` (stereo not shown) [X B5 F D7 Acid 91], for the setting “Acid 91”, the “fraction fluorescent probe displaced, Screen” value is listed as -0.05 and the “fraction fluorescent probe displaced, Replicate” value is -0.06.

For `O=C1NC2(CCN(C(=O)/C=C/c3ccccc3)CC2)C(=O)N[C@@H](Cc2c[nH]c3ccccc23)C(=O)NCCSSCCC(=O)N2CCC[C@H]1C2` [X B4 D6 W Acid 91], where the note is “Acid 91”, the “fraction fluorescent probe displaced, Screen” value is reported as 0.16 and the “fraction fluorescent probe displaced, Replicate” value came out at 0.09.

With `CC(C)=CCCC(C)CC(=O)NCC1NC(=O)C2CCCN2C(=O)CCSSCCNC(=O)C(Cc2c[nH]c3ccccc23)NC1=O` (mixture of isomers) [X-B1-D3-W + A84], the “fraction fluorescent probe displaced” value turned out to be 0.05085.

Consider `O=C1NCCSSCCC(=O)N2CCCC(C2)C(=O)N2CCN(C(=O)c3ccc(Cl)cc3)CC2C(=O)NC1Cc1c[nH]c2ccccc12` (stereo not shown) [X B4 D7 W Acid 25], for which, under “Acid 25”, the “fraction fluorescent probe displaced, Screen” value turned out to be 0.32 and the “fraction fluorescent probe displaced, Replicate” value came out at 0.17.

With `O=C1CCSSCCNC(=O)C2(CCN(C(=O)c3ccc(Cl)cc3)CC2)NC(=O)C(Cc2ccccc2)NC(=O)c2cccc(c2)CN1` (stereo not shown) [X B5 F D6 Acid 25], where the note is “Acid 25”, the “fraction fluorescent probe displaced, Screen” value is 0.0244 and the “fraction fluorescent probe displaced, Replicate” value is reported as 0.0465.

Turning to `O=C1CCSSCCNC(=O)C2CN(C(=O)c3ccc(Cl)cc3)CCN2C(=O)C(Cc2c[nH]c3ccccc23)NC(=O)c2cccc(c2)CN1` (stereo not shown) [X B5 W D7 Acid 25], under “Acid 25”, the “fraction fluorescent probe displaced, Screen” value is listed as 0.12 and the “fraction fluorescent probe displaced, Replicate” value is 0.07.

With `O=C(NC1CC2C(=O)N3CCCC(C3)C(=O)NC(Cc3c[nH]c4ccccc34)C(=O)NCCSSCCC(=O)N2C1)c1ccc(Cl)s1` (stereo not shown) [X D5 B4 W Acid 14], for the setting “Acid 14”, the “fraction fluorescent probe displaced, Screen” value is 0.11 and the “fraction fluorescent probe displaced, Replicate” value is on record as 0.12.

As to `O=C1CCSSCCNC(=O)C(Cc2c[nH]c3ccccc23)NC(=O)c2cccc(c2)CNC(=O)C2(CCN(C(=O)c3ccc(Cl)s3)CC2)N1` (stereo not shown) [X D6 B5 W Acid 14], for the setting “Acid 14”, the “fraction fluorescent probe displaced, Screen” value is listed as 0.23 and the “fraction fluorescent probe displaced, Replicate” value stood at 0.25.

Take `O=C(NC[C@@H]1NC(=O)[C@@H]2CCCN2C(=O)CCSSCCNC(=O)[C@H](Cc2c[nH]c3ccccc23)NC1=O)C1CCOCC1` [X-B1-D3-W + A44] ([Mpa]P[Dap](Tetrahydropyran4carbonyl)W-Cysteamide; disulfide 1-C): the “fraction fluorescent probe displaced” value was 0.01122.

As to `O=C1CCSSCCNC(=O)C2(CCN(C(=O)c3ccc(Cl)cc3)CC2)NC(=O)[C@H](Cc2c[nH]c3ccccc23)NC(=O)c2cccc(c2)CN1` [X B5 W D6 Acid 25], for the setting “Acid 25”, the “fraction fluorescent probe displaced, Screen” value amounted to 0.09 and the “fraction fluorescent probe displaced, Replicate” value is on record as 0.28.

Take `O=C1NC(Cc2ccccc2)C(=O)N2CCN(C(=O)C=Cc3ccccc3)CC2C(=O)NCCSSCCC(=O)N2CCCC1C2` (stereo not shown) [X B4 F D7 Acid 91]: for the setting “Acid 91”, the “fraction fluorescent probe displaced, Screen” value is 0.00268 and the “fraction fluorescent probe displaced, Replicate” value was -0.00827.

For the compound `O=C1CCSSCCNC(=O)C(Cc2ccccc2)NC(=O)C2CN(C(=O)C=Cc3ccccc3)CCN2C(=O)c2cccc(c2)CN1` (mixture of isomers) [X B5 D7 F Acid 91], where the note is “Acid 91”, the “fraction fluorescent probe displaced, Screen” value is -0.10 and the “fraction fluorescent probe displaced, Replicate” value is reported as -0.00827.

With `O=C(/C=C/c1ccccc1)NC[C@@H]1NC(=O)CCSSCCNC(=O)CCNC(=O)[C@H](Cc2ccccc2)NC1=O` [X D3 F B2 Acid 91], where the note is “Acid 91”, the “fraction fluorescent probe displaced, Screen” value came to 0.0563 and the “fraction fluorescent probe displaced, Replicate” value was -0.0333.

As for `O=C1CCSSCCNC(=O)[C@H]2CCCN(C2)C(=O)[C@H](Cc2c[nH]c3ccccc23)NC(=O)[C@H](CNC(=O)c2ccc(Cl)s2)N1` [X D3 W B4 Acid 14], where the note is “Acid 14”, the “fraction fluorescent probe displaced, Screen” value stood at 0.20 and the “fraction fluorescent probe displaced, Replicate” value is listed as 0.0465.

`NC[C@@H]1NC(=O)[C@@H]2CCCN2C(=O)CCSSCCNC(=O)[C@H](Cc2ccccc2)NC1=O` [X-B1-D3-F + No Acid] ([Mpa]P[Dap]F-Cysteamide; disulfide 1-C): the “fraction fluorescent probe displaced” value came to 0.01749.

Consider `O=C1CCSSCCNC(=O)[C@@H]2CCCN2C(=O)C2(CCN(C(=O)/C=C/c3ccccc3)CC2)NC(=O)[C@H](Cc2c[nH]c3ccccc23)N1` [X W D6 B1 Acid 91] ([Mpa]W[Api](X1)P-Cysteamide; disulfide 1-C), for which, for the setting “Acid 91”, the “fraction fluorescent probe displaced, Screen” value was 0.14 and the “fraction fluorescent probe displaced, Replicate” value is given as 0.0168.

For `O=C1CCSSCCNC(=O)c2cccc(c2)CNC(=O)C2(CCN(C(=O)c3ccc(Cl)s3)CC2)NC(=O)[C@H](Cc2c[nH]c3ccccc23)N1` [X W D6 B5 Acid 14], where the note is “Acid 14”, the “fraction fluorescent probe displaced, Screen” value stood at 0.14 and the “fraction fluorescent probe displaced, Replicate” value turned out to be 0.22.

For `O=C1NCCSSCCC(=O)N2CC(NC(=O)c3ccc(Cl)s3)CC2C(=O)NC(Cc2c[nH]c3ccccc23)C(=O)NCc2cccc1c2` (stereo not shown) [X D5 W B5 Acid 14], where the note is “Acid 14”, the “fraction fluorescent probe displaced, Screen” value was found to be 0.08 and the “fraction fluorescent probe displaced, Replicate” value was 0.0211.

Take `O=C1CCSSCCNC(=O)[C@H](Cc2ccccc2)NC(=O)[C@H](CNC(=O)c2ccc(Cl)cc2)NC(=O)CCN1` [X B2 D3 F Acid 25]: where the note is “Acid 25”, the “fraction fluorescent probe displaced, Screen” value is on record as 0.0244 and the “fraction fluorescent probe displaced, Replicate” value is recorded as -0.0552.

As to `O=C1CCSSCCNC(=O)[C@H](Cc2c[nH]c3ccccc23)NC(=O)CCNC(=O)[C@H](CNC(=O)c2ccc(Cl)s2)N1` [X D3 B2 W Acid 14], where the note is “Acid 14”, the “fraction fluorescent probe displaced, Screen” value amounted to 0.17 and the “fraction fluorescent probe displaced, Replicate” value is recorded as 0.25.

For `O=C1CCNC(=O)C(Cc2ccccc2)NC(=O)C2CC(NC(=O)c3ccc(Cl)s3)CN2C(=O)CCSSCCN1` (stereo not shown) [X D5 F B2 Acid 14], under “Acid 14”, the “fraction fluorescent probe displaced, Screen” value came to 0.08 and the “fraction fluorescent probe displaced, Replicate” value was 0.0465.

For the compound `O=C1CCSSCCNC(=O)C(Cc2ccccc2)NC(=O)C2(CCN(C(=O)C=Cc3ccccc3)CC2)NC(=O)c2cccc(c2)CN1` (stereo not shown) [X B5 D6 F Acid 91], where the note is “Acid 91”, the “fraction fluorescent probe displaced, Screen” value was -0.10 and the “fraction fluorescent probe displaced, Replicate” value is -0.08.

As for `O=C1NC(Cc2ccccc2)C(=O)N2CCN(C(=O)c3ccc(Cl)cc3)CC2C(=O)NCCSSCCC(=O)N2CCCC12` (stereo not shown) [X B1 F D7 Acid 25], under “Acid 25”, the “fraction fluorescent probe displaced, Screen” value is recorded as 0.0244 and the “fraction fluorescent probe displaced, Replicate” value is recorded as 0.12.

In the case of `O=C1CCSSCCNC(=O)C2CC(NC(=O)c3ccc(Cl)s3)CN2C(=O)C2CCCN(C2)C(=O)C(Cc2ccccc2)N1` (stereo not shown) [X F B4 D5 Acid 14], where the note is “Acid 14”, the “fraction fluorescent probe displaced, Screen” value is listed as 0.08 and the “fraction fluorescent probe displaced, Replicate” value stood at 0.0465.

For `O=C1CCSSCCNC(=O)[C@@H]2CCCN2C(=O)[C@H](Cc2c[nH]c3ccccc23)NC(=O)[C@H](CNC(=O)c2ccc(Cl)s2)N1` [X D3 W B1 Acid 14] ([Mpa][Dap](2Thenoyl(5-Cl))WP-Cysteamide; disulfide 1-C), under “Acid 14”, the “fraction fluorescent probe displaced, Screen” value is 0.14 and the “fraction fluorescent probe displaced, Replicate” value is given as 0.17.

As to `O=C(NC[C@@H]1NC(=O)[C@@H]2CCCN2C(=O)CCSSCCNC(=O)[C@H](Cc2ccccc2)NC1=O)c1ccc(Cl)cc1` [X-B1-D3-F + A25] ([Mpa]P[Dap](Benzoyl(4-Cl))F-Cysteamide; disulfide 1-C), the “fraction fluorescent probe displaced” value turned out to be 0.2195.

Take `O=C(C=Cc1ccccc1)NC1CC2C(=O)NCCSSCCC(=O)N3CCCC(C3)C(=O)NC(Cc3c[nH]c4ccccc34)C(=O)N2C1` (stereo not shown) [X B4 W D5 Acid 91]: for the setting “Acid 91”, the “fraction fluorescent probe displaced, Screen” value is given as 0.0563 and the “fraction fluorescent probe displaced, Replicate” value is reported as 0.12.

Take `O=C1CCSSCCNC(=O)[C@H](Cc2ccccc2)NC(=O)[C@H](CNC(=O)c2ccc(Cl)s2)NC(=O)CCN1` [X B2 D3 F Acid 14]: where the note is “Acid 14”, the “fraction fluorescent probe displaced, Screen” value was -0.00483 and the “fraction fluorescent probe displaced, Replicate” value turned out to be 0.0465.

On to `O=C1NCCSSCCC(=O)N2CCC[C@H]2C(=O)NC2(CCN(C(=O)/C=C/c3ccccc3)CC2)C(=O)N[C@H]1Cc1ccccc1` [X B1 D6 F Acid 91] ([Mpa]P[Api](X1)F-Cysteamide; disulfide 1-C), for which, under “Acid 91”, the “fraction fluorescent probe displaced, Screen” value is on record as -0.10 and the “fraction fluorescent probe displaced, Replicate” value turned out to be 0.05.

On to `O=C(NC[C@@H]1NC(=O)[C@@H]2CCCN2C(=O)CCSSCCNC(=O)[C@H](Cc2ccccc2)NC1=O)c1cc(-c2ccco2)[nH]n1` [X-B1-D3-F + A79] ([Mpa]P[Dap](X10)F-Cysteamide; disulfide 1-C), for which the “fraction fluorescent probe displaced” value is given as 0.07009.

For the compound `O=C1CCSSCCNC(=O)[C@H](CNC(=O)c2ccc(Cl)s2)NC(=O)[C@H]2CCCN(C2)C(=O)[C@H](Cc2ccccc2)N1` [X F B4 D3 Acid 14], where the note is “Acid 14”, the “fraction fluorescent probe displaced, Screen” value turned out to be 0.23 and the “fraction fluorescent probe displaced, Replicate” value is recorded as 0.17.

Consider `O=C(NC[C@@H]1NC(=O)[C@@H]2CCCN2C(=O)CCSSCCNC(=O)[C@H](Cc2ccccc2)NC1=O)c1ccc(Cl)s1` [X-B1-D3-F + A14] ([Mpa]P[Dap](2Thenoyl(5-Cl))F-Cysteamide; disulfide 1-C), for which the “fraction fluorescent probe displaced” value worked out at 0.08192.

(Values after publication PMC9250534, “Synthesis and direct assay of large macrocycle diversities by combinatorial late-stage modification at picomole scale” (Nature Communications, 2022).)
